The record followed here is patent US20110071158A1, “NEW COMPOUNDS” (BOEHRINGER INGELHEIM INTERNATIONAL GMBH, priority 2009, published 2011).

T1 sequence (Q05397 whole entry): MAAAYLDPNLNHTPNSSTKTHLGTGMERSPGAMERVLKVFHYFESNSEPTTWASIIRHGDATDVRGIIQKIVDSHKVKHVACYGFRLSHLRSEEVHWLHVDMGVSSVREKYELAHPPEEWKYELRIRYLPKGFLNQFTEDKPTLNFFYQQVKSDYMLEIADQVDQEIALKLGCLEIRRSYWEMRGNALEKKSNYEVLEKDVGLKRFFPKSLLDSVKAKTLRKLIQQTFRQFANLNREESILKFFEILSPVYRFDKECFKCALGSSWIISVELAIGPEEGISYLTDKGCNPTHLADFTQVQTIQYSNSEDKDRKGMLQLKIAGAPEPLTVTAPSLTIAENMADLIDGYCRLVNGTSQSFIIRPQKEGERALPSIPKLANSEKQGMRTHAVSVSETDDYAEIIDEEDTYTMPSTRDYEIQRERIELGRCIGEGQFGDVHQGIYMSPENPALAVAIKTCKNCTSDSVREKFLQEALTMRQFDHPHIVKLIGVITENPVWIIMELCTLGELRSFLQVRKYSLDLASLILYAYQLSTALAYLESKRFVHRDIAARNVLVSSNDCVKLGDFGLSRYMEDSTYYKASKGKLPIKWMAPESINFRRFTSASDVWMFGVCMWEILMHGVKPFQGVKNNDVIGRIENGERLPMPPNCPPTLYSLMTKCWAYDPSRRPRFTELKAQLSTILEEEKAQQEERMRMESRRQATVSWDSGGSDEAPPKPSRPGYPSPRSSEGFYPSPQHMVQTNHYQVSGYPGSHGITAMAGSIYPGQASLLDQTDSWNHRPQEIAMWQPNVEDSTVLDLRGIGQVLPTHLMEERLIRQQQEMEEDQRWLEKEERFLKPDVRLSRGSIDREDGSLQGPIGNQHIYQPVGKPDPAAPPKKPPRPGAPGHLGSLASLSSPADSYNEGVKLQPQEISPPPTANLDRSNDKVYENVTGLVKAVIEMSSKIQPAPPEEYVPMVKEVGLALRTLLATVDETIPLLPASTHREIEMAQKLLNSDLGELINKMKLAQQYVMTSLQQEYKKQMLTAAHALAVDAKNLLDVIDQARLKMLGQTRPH

The experiment addresses T1, PTK2 enzyme (Homo sapiens, UniProt Q05397).
T1 construct: purchased Invitrogen PV3832
Kind of experiment: PTK2 enzyme test, Assay 1 (DELFIA, poly-Glu-Tyr substrate, antibody PT60). The class given is biochemical. To be noted: Assay 1 (values without *); 1 h pre-incubation, 2% DMSO. On the procedure:
This test uses active PTK2 enzyme (Invitrogen Code PV3832) and poly-Glu-Tyr (4:1, Sigma P-0275) as the kinase substrate. The kinase activity is detected through the phosphorylation of the substrate in a DELFIA™ assay. The phosphorylated substrate is detected with the europium-labelled phosphotyrosine antibody PT60 (Perkin Elmer, No.: AD00400).
In order to determine concentration-activity curves with PTK2-inhibitors the compounds are serially diluted in 10% DMSO/H2O and 10 μL of each dilution are placed in each well of a 96-well microtitre plate (clear plate with a U-shaped base, Greiner No. 650101) (the inhibitors are tested in duplicates) and mixed with 10 μL/well of PTK2 kinase (0.01 μg/well). PTK2 kinase has been correspondingly diluted beforehand with kinase dilution buffer (20 mM TRIS/HCl pH 7.5, 0.1 mM EDTA, 0.1 mM EGTA, 0.286 mM sodium orthovanadate, 10% glycerol with the addition of freshly prepared BSA (fraction V, 1 mg/mL) and DTT (1 mM)). The test compound and the PTK2 kinase are pre-incubated for 1 h at RT and shaken at 500 revolutions per min. The reaction is started by the addition of 10 μL/well poly (Glu,Tyr) substrate (25 μg/well poly (Glu, Tyr), 0.05 μg/well biotinylated poly (Glu,Tyr) dissolved in 250 mM TRIS/HCl pH 7.5, 9 mM DTT)—the final concentration of DMSO is 2%. Then 20 μL of ATP Mix (30 mM TRIS/HCl pH 7.5, 0.02% Brij, 0.2 mM sodium orthovanadate, 10 mM magnesium acetate, 0.1 mM EGTA, 1× phosphatase inhibitor cocktail 1 (Sigma, No.: P2850), 50 μM ATP (Sigma, No.: A3377; 15 mM stock solution)) are added. After 1 h of kinase reaction (the plates are shaken at 500 rpm), the reaction is stopped by the addition of 12 μL/well 100 mM EDTA, pH 8.0 and shaken for a further 5 min at RT (500 rpm). 55 μL of the reaction mixture are transferred into a streptavidin plate (Strepta Well High Bind (transparent, 96-well) made by Roche, No.: 11989685001) and incubated for 1 h at RT (shaking at 500 rpm). Then the microtitre plate is washed three times with 200 μL/well D-PBS (Invitrogen, No. 14190). 100 μL of a solution containing DELFIA Eu-N1 Anti-Phosphotyrosine PT60 antibody (Perkin Elmer, No.: AD0040, diluted 1:2000 in DELFIA test buffer (Perkin Elmer, No.: 1244-111)) is then added and the mixture is incubated for 1 h at RT (shaking at 500 rpm). Then the plate is washed three times with 200 μL/well DELFIA washing buffer (Perkin Elmer, No.: 1244-114), 200 μL/well strengthening solution (Perkin Elmer, No.: 1244-105) are added and the mixture is incubated for 10 min at RT (shaking at 300 rpm).
The time-delayed europium fluorescence is then measured in a microtitre plate reader (VICTOR^3, Perkin Elmer). […] Wells that contain test buffer instead of enzyme are used as a control of the background kinase activity.
The IC50 values are determined from analyses of the concentration activity by iterative calculation with the aid of a sigmoid curve analysis algorithm (FIFTY, based on Graph PAD Prism Version 3.03) with a variable Hill coefficient.
A word on the IC50: it is the midpoint of a concentration-inhibition curve. A high value points to weaker potency in that assay. `CCN1CCC(NC(=O)c2ccc(Nc3ncc(C(F)(F)F)c(N[C@@H]4CCC[C@H]4N(C)S(C)(=O)=O)n3)c(OC)c2)CC1` [Example I-129] displayed an IC50 of 0.73 nM. Under `COc1cc(C(=O)NC2CCN(C)CC2)c(F)cc1Nc1ncc(C(F)(F)F)c(N[C@@H]2CCCC[C@H]2NC(=O)C(C)C)n1` [Example I-121] stands 3 nM; under `CCN1CCC(NC(=O)c2cc(OC)c(Nc3ncc(C(F)(F)F)c(N[C@@H]4CCCC[C@H]4NC(C)=O)n3)cc2F)CC1` [Example I-87], 2 nM; under `COc1cc(C(=O)NC2CCN(C)CC2)c(F)cc1Nc1ncc(C(F)(F)F)c(N[C@@H]2CCCC[C@H]2NCC(=O)N(C)OC)n1` [Example I-27], 6 nM. Then `COCCNC(=O)c1ccc(Nc2ncc(C(F)(F)F)c(N[C@@H]3CCCC[C@H]3N(C)C(C)=O)n2)c(OC)c1` [Example I-110], with 2 nM; and `COc1cc(C(=O)NC2CCN(C)CC2)ccc1Nc1ncc(C(F)(F)F)c(N[C@@H]2CCCC[C@H]2N2CCCC2=O)n1` [Example I-97], with 2 nM; and `COCCNC(=O)c1ccc(Nc2ncc(Cl)c(N[C@@H]3CCCC[C@H]3NC(C)=O)n2)c(OC)c1` [Example I-65], with 3 nM. Under `CC(=O)Nc1ccc(Nc2ncc(C(F)(F)F)c(N[C@@H]3CCCC[C@H]3N(C)S(C)(=O)=O)n2)cc1C` [Example I-186] stands 4 nM. `COc1cc(CN2CCOCC2)ccc1Nc1ncc(C(F)(F)F)c(N[C@@H]2CCCC[C@H]2NC(C)=O)n1` [Example I-115] came in with an IC50 of 1 nM. With `CNC(=O)c1ccc(Nc2ncc(C(F)(F)F)c(N[C@@H]3CCCC[C@H]3NC(C)=O)n2)c(OC)c1` [Example I-6], the midpoint of inhibition, the IC50, lay at 4 nM. The molecule `COc1cc(Nc2ncc(Cl)c(N[C@@H]3CCCC[C@H]3NC(C)=O)n2)cc(OC)c1OC` [Example I-190] returned an IC50 of 13 nM. Take `COc1cc(C(=O)NC2CCCN(C)C2)ccc1Nc1ncc(C(F)(F)F)c(N[C@@H]2CCCC[C@H]2NC(C)=O)n1` (stereo partly shown) [Example I-41]: the IC50 stood at 2 nM. This IC50 lies about 6.5-fold lower than the previous one. Under `COc1cc(N2CCN(C(C)(C)C)CC2)ccc1Nc1ncc(C(F)(F)F)c(N[C@@H]2CCCC[C@H]2N(C)S(C)(=O)=O)n1` [Example I-145] stands 3 nM; under `COc1cc(N2CCN(C)CC2)ccc1Nc1ncc(C(F)(F)F)c(N[C@@H]2CCCC[C@H]2N(C)S(C)(=O)=O)n1` [Example I-143], 0.94 nM; under `CCNC(=O)N[C@@H]1CCCC[C@H]1Nc1nc(Nc2ccc(C(=O)NC3CCN(C)CC3)cc2OC)ncc1C(F)(F)F` [Example I-15], 3 nM. On to `COc1cc(C(=O)NC2CCN(C)CC2)ccc1Nc1ncc(C(F)(F)F)c(N[C@@H]2CCCC[C@H]2NC(=O)CN2CCOCC2)n1` [Example I-68], for which the IC50 came to 200 nM. Regarding `CCN([C@@H]1CCCC[C@H]1Nc1nc(Nc2ccc(NC(C)=O)c(OC)c2)ncc1C(F)(F)F)S(C)(=O)=O` [Example I-189], the midpoint of inhibition, the IC50, lay at 9 nM. As for `COc1cc(C(=O)NC2CCCN(C)C2)ccc1Nc1ncc(Cl)c(N[C@@H]2CCCC[C@H]2NC(C)=O)n1` (stereo partly shown) [Example I-62], inhibition was half-maximal at 1 nM (IC50). Then `COc1cc(N2CCN(C(C)(C)C)CC2)ccc1Nc1ncc(Br)c(N[C@@H]2CCCC[C@H]2N(C)S(C)(=O)=O)n1` [Example I-182], with 4 nM. Then `COc1cc(C(=O)NC2CCN(C)CC2)ccc1Nc1ncc(Cl)c(N[C@@H]2CCCC[C@H]2NC(C)=O)n1` [Example I-64], with 1 nM. The molecule `CCN1CCC(NC(=O)c2cc(OC)c(Nc3ncc(C(F)(F)F)c(N[C@@H]4CCCC[C@H]4N(C)C(C)=O)n3)cc2F)CC1` [Example I-161] registered an IC50 of 1 nM. In turn, `COc1ccccc1Nc1ncc(Cl)c(N[C@@H]2CCCC[C@H]2NC(C)=O)n1` [Example I-4, N-{(1R,2R)-2-[5-chloro-2-(2-methoxy-phenylamino)-pyrimidin-4-ylamino]-cyclohexyl}-acetamide] registered an IC50 of 9 nM.

On to `COCC(=O)N(C)[C@@H]1CCCC[C@H]1Nc1nc(Nc2ccc(C(=O)NC3CCN(C)CC3)cc2OC)ncc1C(F)(F)F` [Example I-3, 3-methoxy-4-(4-{(1R,2R)-2-[(2-methoxy-acetyl)-methyl-amino]-cyclohexylamino}-5-trifluoromethyl-pyrimidin-2-ylamino)-N-(1-methyl-piperidin-4-yl)-benzamide], for which the IC50 stood at 10 nM. The IC50 values of the last two molecules are within 1.5-fold of each other. Under `COc1ccc(Nc2ncc(Br)c(N[C@@H]3CCCC[C@H]3NC(C)=O)n2)c(OC)c1` [Example I-54] stands 4 nM; under `COc1cc(C(=O)NC2CCN(C)CC2)c(Cl)cc1Nc1ncc(Cl)c(N[C@@H]2CCCC[C@H]2N(C)S(C)(=O)=O)n1` [Example I-168], 3 nM; under `CCN1CCC(NC(=O)c2ccc(Nc3ncc(C(F)(F)F)c(N[C@H]4CCCC[C@@H]4NC(C)=O)n3)c(OC)c2)CC1` [Example I-38], 400 nM. Under `COc1cc(C(=O)NC2CCC(N(C)C)CC2)ccc1Nc1ncc(C(F)(F)F)c(N[C@@H]2CCCC[C@H]2N(C)C(C)=O)n1` (stereo partly shown) [Example I-108] stands 1 nM; under `CNCc1ccc(Nc2ncc(C(F)(F)F)c(N[C@@H]3CCCC[C@H]3NC(=O)C3CCC3)n2)c(OC)c1` [Example I-75], 3 nM.

In turn, `COc1cc(C(=O)NC2CCOCC2)ccc1Nc1ncc(Cl)c(N[C@@H]2CCCC[C@H]2NC(C)=O)n1` [Example I-60] showed an IC50 of 3 nM. In turn, `CNC(=O)c1ccc(Nc2ncc(Br)c(N[C@@H]3CCCC[C@H]3NC(C)=O)n2)c(OC)c1` [Example I-46] showed an IC50 of 2 nM. Then `COc1cc(C(=O)NC2CCN(C)CC2)ccc1Nc1ncc(C(F)(F)F)c(N[C@@H]2CCCC[C@H]2N(C)C(=O)C2CC2)n1` [Example I-83], with 4 nM; and `COc1cc(C(=O)NCCN(C)C)ccc1Nc1ncc(C(F)(F)F)c(N[C@@H]2CCCC[C@H]2N(C)C(C)=O)n1` [Example I-73], with 0.95 nM.

Molecule `COc1cc(C(=O)NC2CCN(C)CC2)ccc1Nc1ncc(C(F)(F)F)c(N[C@H]2CCCC[C@@H]2NC(C)=O)n1` [Example I-35] showed an IC50 of 81 nM. Under `CCN1CCC(NC(=O)c2cc(OC)c(Nc3ncc(Cl)c(N[C@@H]4CCCC[C@H]4N(C)S(C)(=O)=O)n3)cc2F)CC1` [Example I-169] stands 4 nM; under `COc1cc(C(=O)NC2CCN(C3CC3)CC2)ccc1Nc1ncc(Br)c(N[C@@H]2CCCC[C@H]2NC(C)=O)n1` [Example I-55], 2 nM. The molecule `COc1cc(C(=O)NC2CCN(C)CC2)ccc1Nc1ncc(C(F)(F)F)c(N[C@@H]2CCCC[C@H]2NC(=O)NC(C)(C)C)n1` [Example I-18] gave a half-inhibitory concentration (IC50) of 46 nM. This IC50 is about 23-fold higher than that of the molecule before. With `COc1cc(C(=O)NC2CCN(C)CC2)ccc1Nc1ncc(C(F)(F)F)c(N[C@@H]2CCCC[C@H]2NC(=O)CN2CCN(C)CC2)n1` [Example I-66], the IC50 is 200 nM. This IC50 is about 4.3-fold higher than that of the molecule before. Then `COc1cc(C(=O)NC2CCN(C)CC2)c(F)cc1Nc1ncc(C(F)(F)F)c(N[C@@H]2CCCC[C@H]2NC(C)=O)n1` [Example I-154], with 1 nM. Under `COc1cc(C(=O)NC2CCCN(C)C2)ccc1Nc1ncc(C(F)(F)F)c(N[C@H]2CCCC[C@@H]2NC(C)=O)n1` (stereo partly shown) [Example I-37] stands 400 nM. The molecule `COc1cc(C(=O)NC2CCCN(C)C2)ccc1Nc1ncc(C(F)(F)F)c(N[C@@H]2CCCC[C@H]2N(C)C(C)=O)n1` (stereo partly shown) [Example I-74] gave an IC50 of 1 nM.
